In the supplement of paper PMC11451515:

What was measured:
Conditions in all cases: 48 h
SEM cells [1] = test: cell viability relative to DMSO control; higher = less cytotoxic
Procedure, shortened: (§1)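 NOMO1 or SEM cells were plated at 500 cells/well and P12-Ichikawa cells at 1000 cells/well in 1536-well plates (5 μl), after each leukemia line had been adapted for at least four passages in each medium. Pin dosing delivered library compounds in DMSO at 11 threefold concentrations, 47 μM to 0.79 nM. CellTiter-Glo One luminescence was read after 48 h at 37°C. Viability is reported as a per-plate percentage of DMSO wells, with cell-free wells as background.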

SEM cells [2] = test: AUC of viability dose-response curve (% viability x log10 dose units); higher = less sensitive
Procedure, shortened: (§2)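 In 1536-well plates, leukemia cells adapted to each medium (500 or 1000 cells/well) were exposed for 48 h at 37°C to library compounds in DMSO across 11 threefold doses, 47 μM down to 0.79 nM. Viability was read by CellTiter-Glo One luminescence and normalised per plate to DMSO and cell-free wells. A four-parameter log-logistic fit over log10 doses was integrated by trapezoidal rule. This yielded the area under the curve, with over-full-viability curves scaled and quality-control failures dropped.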

NOMO1 [3] = test: as above
Procedure, shortened: as §2

P12-Ichikawa [4] = test: as above
Procedure, shortened: as §2

NOMO1 [5] = test: cell viability relative to DMSO control; higher = less cytotoxic
Procedure, shortened: as §1

P12-Ichikawa [6] = test: as above
Procedure, shortened: as §1

CC(CCc1ccc(O)cc1)NCCc1ccc(O)c(O)c1 (centres undefined)
SEM cells [1], HPLM + 10% dialyzed FBS
Conditions | cell viability [%]
0.000781 µM | 117
0.00234 µM | 113
0.00702 µM | 138
0.0211 µM | 145
0.0632 µM | 133
0.19 µM | 141
0.569 µM | 132
1.71 µM | 128
5.12 µM | 114
15.4 µM | 90.5
46.1 µM | 19.8

AUC of viability dose-response curve
Conditions | NOMO1 [3] | P12-Ichikawa [4] | SEM cells [2]
HPLM + 10% dialyzed FBS | 463 | 441 | 436
RPMI 5 mM glucose + 10% FBS | 461 | 450 | 415
RPMI 5 mM glucose + 10% dialyzed FBS | 452 | 453 | 439

CN(C1CCc2c(c3ccccc3n2CC(=O)O)C1)[S+](=O)([O-])c1ccc(F)cc1 (centres undefined)
AUC of viability dose-response curve
Conditions | NOMO1 [3] | P12-Ichikawa [4] | SEM cells [2]
HPLM + 10% dialyzed FBS | 383 | 399 | 461
RPMI 5 mM glucose + 10% FBS | 392 | 401 | 425
RPMI 5 mM glucose + 10% dialyzed FBS | 392 | 419 | 454

C[C@H]1CN(C[C@@H](C)N1)C2=C(F)C3=C(C(=C2F)N)C(=O)\C(=C/N3C4CC4)C(O)=O
cell viability [%], SEM cells [1]
Conditions | HPLM + 10% dialyzed FBS | RPMI 5 mM glucose + 10% dialyzed FBS
0.000781 µM | 108 | 119
0.00234 µM | 112 | 122
0.00702 µM | 130 | 134
0.0211 µM | 122 | 114
0.0632 µM | 109 | 109
0.19 µM | 115 | 124
0.569 µM | 107 | 118
1.71 µM | 91.4 | 95.3
5.12 µM | 95.9 | 96.3
15.4 µM | 86.4 | 88.7
46.1 µM | 60.1 | 56.9

AUC of viability dose-response curve
Conditions | NOMO1 [3] | P12-Ichikawa [4] | SEM cells [2]
HPLM + 10% dialyzed FBS | 422 | 448 | 424
RPMI 5 mM glucose + 10% FBS | 466 | 441 | 423
RPMI 5 mM glucose + 10% dialyzed FBS | 446 | 430 | 425

CCN(CC)Cc1ccc2cc(COC(=O)Nc3ccc(C(=O)NO)cc3)ccc2c1
SEM cells [1], HPLM + 10% dialyzed FBS
Conditions | cell viability [%]
0.000781 µM | 108
0.00234 µM | 121
0.00702 µM | 127
0.0211 µM | 138
0.0632 µM | 129
0.19 µM | 138
0.569 µM | 118
1.71 µM | 59.1
5.12 µM | 3.07
15.4 µM | 2.21
46.1 µM | 3.97

AUC of viability dose-response curve
Conditions | NOMO1 [3] | P12-Ichikawa [4] | SEM cells [2]
HPLM + 10% dialyzed FBS | 362 | 349 | 333
RPMI 5 mM glucose + 10% FBS | 372 | 347 | 345
RPMI 5 mM glucose + 10% dialyzed FBS | 370 | 352 | 339

CC(C)C[C@@H](N)[C@H](O)C(=O)N[C@H](C(=O)N[C@H](C(=O)N[C@@H](CC(=O)O)C(=O)O)C(C)C)C(C)C
AUC of viability dose-response curve
Conditions | NOMO1 [3] | P12-Ichikawa [4] | SEM cells [2]
HPLM + 10% dialyzed FBS | 455 | 468 | 465
RPMI 5 mM glucose + 10% FBS | 462 | 433 | 446
RPMI 5 mM glucose + 10% dialyzed FBS | 463 | 450 | 477

C=CC[N+]1([C@H]2C[C@H]3[C@@H]4CC[C@H]5C[C@H](O)[C@@H](N6CCOCC6)C[C@]5(C)[C@H]4CC[C@]3(C)[C@H]2OC(C)=O)CCCC1
SEM cells [1], HPLM + 10% dialyzed FBS
Conditions | cell viability [%]
0.000781 µM | 130
0.00234 µM | 116
0.00702 µM | 119
0.0211 µM | 125
0.0632 µM | 114
0.19 µM | 131
0.569 µM | 124
1.71 µM | 127
5.12 µM | 119
15.4 µM | 113
46.1 µM | 113

AUC of viability dose-response curve
Conditions | NOMO1 [3] | P12-Ichikawa [4] | SEM cells [2]
HPLM + 10% dialyzed FBS | 442 | 457 | 462
RPMI 5 mM glucose + 10% FBS | 454 | 455 | 464
RPMI 5 mM glucose + 10% dialyzed FBS | 455 | 462 | 465

O=C1CCC(N2C(=O)c3ccccc3C2=O)C(=O)N1 (centres undefined)
SEM cells [1], RPMI 5 mM glucose + 10% FBS
Conditions | cell viability [%]
0.000781 µM | 106
0.00234 µM | 114
0.00702 µM | 115
0.0211 µM | 112
0.0632 µM | 102
0.19 µM | 94.6
0.569 µM | 98.2
1.71 µM | 111
5.12 µM | 101
15.4 µM | 67.3
46.1 µM | 98.9

AUC of viability dose-response curve
Conditions | NOMO1 [3] | P12-Ichikawa [4] | SEM cells [2]
HPLM + 10% dialyzed FBS | 436 | 443 | 454
RPMI 5 mM glucose + 10% FBS | 437 | 438 | 437
RPMI 5 mM glucose + 10% dialyzed FBS | 461 | 450 | 443

O=C(O)c1nn(Cc2ccc(Cl)cc2Cl)c2ccccc12
cell viability [%]
Conditions | NOMO1 [5] | P12-Ichikawa [6] | SEM cells [1]
HPLM + 10% dialyzed FBS, 0.000781 µM | 112 | 94.1 | 93.5
HPLM + 10% dialyzed FBS, 0.00234 µM | 116 | 93 | 90.1
HPLM + 10% dialyzed FBS, 0.00702 µM | 106 | 97.1 | 95.5
HPLM + 10% dialyzed FBS, 0.0211 µM | 100 | 92.5 | 96.3
HPLM + 10% dialyzed FBS, 0.0632 µM | 78.3 | 89.5 | 86.5
HPLM + 10% dialyzed FBS, 0.19 µM | 83.8 | 84 | 54.8
HPLM + 10% dialyzed FBS, 0.569 µM | 71.2 | 81.1 | 68.7
HPLM + 10% dialyzed FBS, 1.71 µM | 61.8 | 88.9 | 92.3
HPLM + 10% dialyzed FBS, 5.12 µM | 92.3 | 89.6 | 84.7
HPLM + 10% dialyzed FBS, 15.4 µM | 76.5 | 79.2 | 76.2
HPLM + 10% dialyzed FBS, 46.1 µM | 69.9 | 87.1 | 54.7
RPMI 5 mM glucose + 10% FBS, 0.000781 µM | 86.1 | 87.5 | 124
RPMI 5 mM glucose + 10% FBS, 0.00234 µM | 76.6 | 86.6 | 123
RPMI 5 mM glucose + 10% FBS, 0.00702 µM | 78.1 | 95.3 | 132
RPMI 5 mM glucose + 10% FBS, 0.0211 µM | 83.8 | 85.2 | 130
RPMI 5 mM glucose + 10% FBS, 0.0632 µM | 96.7 | 86.1 | 93.3
RPMI 5 mM glucose + 10% FBS, 0.19 µM | 81.7 | 85.7 | 83.6
RPMI 5 mM glucose + 10% FBS, 0.569 µM | 75.5 | 84.3 | 86.2
RPMI 5 mM glucose + 10% FBS, 1.71 µM | 83.8 | 82.2 | 135
RPMI 5 mM glucose + 10% FBS, 5.12 µM | 85.4 | 89.5 | 95.2
RPMI 5 mM glucose + 10% FBS, 15.4 µM | 79.5 | 85.2 | 94.7
RPMI 5 mM glucose + 10% FBS, 46.1 µM | 74 | 84.2 | 81
RPMI 5 mM glucose + 10% dialyzed FBS, 0.000781 µM | 79.9 | 87.6 | 96.1
RPMI 5 mM glucose + 10% dialyzed FBS, 0.00234 µM | 89.7 | 79.1 | 89.9
RPMI 5 mM glucose + 10% dialyzed FBS, 0.00702 µM | 97.4 | 89.1 | 89.1
RPMI 5 mM glucose + 10% dialyzed FBS, 0.0211 µM | 94.2 | 86.4 | 77.2
RPMI 5 mM glucose + 10% dialyzed FBS, 0.0632 µM | 91.1 | 81.3 | 76.3
RPMI 5 mM glucose + 10% dialyzed FBS, 0.19 µM | 85.6 | 74 | 46.9
RPMI 5 mM glucose + 10% dialyzed FBS, 0.569 µM | 73.8 | 73.9 | 69
RPMI 5 mM glucose + 10% dialyzed FBS, 1.71 µM | 75.3 | 74.4 | 97.5
RPMI 5 mM glucose + 10% dialyzed FBS, 5.12 µM | 83.2 | 81.5 | 70.1
RPMI 5 mM glucose + 10% dialyzed FBS, 15.4 µM | 81.2 | 71.7 | 92.7
RPMI 5 mM glucose + 10% dialyzed FBS, 46.1 µM | 76.1 | 76.9 | 59.6

AUC of viability dose-response curve
Conditions | HPLM + 10% dialyzed FBS | RPMI 5 mM glucose + 10% FBS | RPMI 5 mM glucose + 10% dialyzed FBS
P12-Ichikawa [4] | 423 | 412 | 379
SEM cells [2] | 387 | 400 | 375
